According to ChEMBL document CHEMBL1151757, “Synthesis, radiosynthesis, and biological evaluation of fluorine-18-labeled 2beta-carbo(fluoroalkoxy)-3beta-(3'-((Z)-2-haloethenyl)phenyl)nortropanes: candidate radioligands for in vivo imaging of the serotonin transporter with positron emission tomography” (J Med Chem, 2008):

How the values were obtained:
Thalamus [1] = assay: Drug uptake in anesthetized cynomolgus monkey brain thalamus after 22.5 mins postinjection; format: ADME, organism-based, Macaca fascicularis; set-up: unit not given here; details: in vivo, 0.375 h
Caudate [2] = assay: Drug uptake in anesthetized cynomolgus monkey brain caudate after 65 mins postinjection; format: ADME, organism-based, Macaca fascicularis, Caudate nucleus; details: in vivo
Midbrain [3] = assay: Drug uptake in anesthetized cynomolgus monkey brain midbrain after 12.5 mins postinjection; format: ADME, organism-based, Macaca fascicularis; set-up: unit not given here; details: in vivo
[4] = Ratio of drug uptake in midbrain to cerebellum in anesthetized cynomolgus monkey after 135 mins postinjection; format: ADME, organism-based, Macaca fascicularis; details: in vivo, 2.25 h
[5] = Ratio of drug uptake in pons to cerebellum in anesthetized cynomolgus monkey after 1.5 mins postinjection; format: ADME, organism-based, Macaca fascicularis; details: in vivo, 0.025 h
Medulla [6] = assay: Drug uptake in anesthetized cynomolgus monkey brain medulla after 0.5 mins postinjection; format: ADME, organism-based, Macaca fascicularis; details: in vivo
Midbrain [7] = assay: Drug uptake in anesthetized cynomolgus monkey brain midbrain after 55 mins postinjection; format: ADME, organism-based, Macaca fascicularis; set-up: unit not given here; details: in vivo
[8] = Drug uptake in anesthetized cynomolgus monkey brain frontal lobe after 35 mins postinjection; format: ADME, organism-based, Macaca fascicularis; details: in vivo
Putamen [9] = assay: Drug uptake in anesthetized cynomolgus monkey brain putamen after 175 mins postinjection; format: ADME, organism-based, Macaca fascicularis; details: in vivo
Midbrain [10] = assay: Drug uptake in anesthetized cynomolgus monkey brain midbrain after 125 mins postinjection; format: ADME, organism-based, Macaca fascicularis; set-up: unit not given here; details: in vivo
Thalamus [11] = assay: Drug uptake in anesthetized cynomolgus monkey brain thalamus after 65 mins postinjection; format: ADME, organism-based, Macaca fascicularis; set-up: unit not given here; details: in vivo
Putamen [12] = assay: Drug uptake in anesthetized cynomolgus monkey brain putamen after 105 mins postinjection; format: ADME, organism-based, Macaca fascicularis; set-up: unit not given here; details: in vivo, 1.75 h
Medulla [13] = assay: Drug uptake in anesthetized cynomolgus monkey brain medulla after 18.5 mins postinjection; format: ADME, organism-based, Macaca fascicularis; details: in vivo
Midbrain [14] = assay: Drug uptake in anesthetized cynomolgus monkey brain midbrain after 165 mins postinjection; format: ADME, organism-based, Macaca fascicularis; details: in vivo, 2.75 h
Medulla [15] = assay: Drug uptake in anesthetized cynomolgus monkey brain medulla after 27.5 mins postinjection; format: ADME, organism-based, Macaca fascicularis; details: in vivo
[16] = Ratio of drug uptake in pons to cerebellum in anesthetized cynomolgus monkey after 185 mins postinjection; format: ADME, organism-based, Macaca fascicularis; details: in vivo
[17] = Drug uptake in anesthetized cynomolgus monkey brain occipital lobe after 195 mins postinjection; format: ADME, organism-based, Macaca fascicularis; details: in vivo, 3.25 h
Medulla [18] = assay: Drug uptake in anesthetized cynomolgus monkey brain medulla after 205 mins postinjection; format: ADME, organism-based, Macaca fascicularis; details: in vivo
[19] = Ratio of drug uptake in occipital lobe to cerebellum in anesthetized cynomolgus monkey after 235 mins postinjection; format: ADME, organism-based, Macaca fascicularis; details: in vivo
Midbrain [20] = assay: Drug uptake in anesthetized cynomolgus monkey brain midbrain after 27.5 mins postinjection; format: ADME, organism-based, Macaca fascicularis; set-up: unit not given here; details: in vivo
Midbrain [21] = assay: Drug uptake in anesthetized cynomolgus monkey brain midbrain after 35 mins postinjection; format: ADME, organism-based, Macaca fascicularis; set-up: unit not given here; details: in vivo
Pons [22] = assay: Drug uptake in anesthetized cynomolgus monkey brain pons after 3.5 mins postinjection; format: ADME, organism-based, Macaca fascicularis; details: in vivo
[23] = Ratio of drug uptake in midbrain to cerebellum in anesthetized cynomolgus monkey after 215 mins postinjection; format: ADME, organism-based, Macaca fascicularis; details: in vivo
Caudate [24] = assay: Drug uptake in anesthetized cynomolgus monkey brain caudate after 3.5 mins postinjection; format: ADME, organism-based, Macaca fascicularis, Caudate nucleus; details: in vivo
[25] = Ratio of drug uptake in occipital lobe to cerebellum in anesthetized cynomolgus monkey after 135 mins postinjection; format: ADME, organism-based, Macaca fascicularis; details: in vivo, 2.25 h
Midbrain [26] = assay: Drug uptake in anesthetized cynomolgus monkey brain midbrain after 0.5 mins postinjection; format: ADME, organism-based, Macaca fascicularis; set-up: unit not given here; details: in vivo
[27] = Ratio of drug uptake in frontal lobe to cerebellum in anesthetized cynomolgus monkey after 205 mins postinjection; format: ADME, organism-based, Macaca fascicularis; details: in vivo
[28] = Ratio of drug uptake in caudate to cerebellum in anesthetized cynomolgus monkey after 225 mins postinjection; format: ADME, organism-based, Macaca fascicularis; details: in vivo, 3.75 h
[29] = Drug uptake in anesthetized cynomolgus monkey brain frontal lobe after 2.5 mins postinjection; format: ADME, organism-based, Macaca fascicularis; details: in vivo
[30] = Drug uptake in anesthetized cynomolgus monkey brain frontal lobe after 45 mins postinjection; format: ADME, organism-based, Macaca fascicularis; details: in vivo, 0.75 h
Midbrain [31] = assay: Drug uptake in anesthetized cynomolgus monkey brain midbrain after 4.5 mins postinjection; format: ADME, organism-based, Macaca fascicularis; set-up: unit not given here; details: in vivo, 0.075 h
Thalamus [32] = assay: Drug uptake in anesthetized cynomolgus monkey brain thalamus after 145 mins postinjection; format: ADME, organism-based, Macaca fascicularis; set-up: unit not given here; details: in vivo
Thalamus [33] = assay: Drug uptake in anesthetized cynomolgus monkey brain thalamus after 0.5 mins postinjection; format: ADME, organism-based, Macaca fascicularis; details: in vivo
Caudate [34] = assay: Drug uptake in anesthetized cynomolgus monkey brain caudate after 0.5 mins postinjection; format: ADME, organism-based, Macaca fascicularis, Caudate nucleus; details: in vivo
Putamen [35] = assay: Drug uptake in anesthetized cynomolgus monkey brain putamen after 215 mins postinjection; format: ADME, organism-based, Macaca fascicularis; details: in vivo
[36] = Ratio of drug uptake in pons to cerebellum in anesthetized cynomolgus monkey after 125 mins postinjection; format: ADME, organism-based, Macaca fascicularis; details: in vivo
[37] = Ratio of drug uptake in putamen to cerebellum in anesthetized cynomolgus monkey after 75 mins postinjection; format: ADME, organism-based, Macaca fascicularis; details: in vivo, 1.25 h
Caudate [38] = assay: Drug uptake in anesthetized cynomolgus monkey brain caudate after 105 mins postinjection; format: ADME, organism-based, Macaca fascicularis, Caudate nucleus; details: in vivo, 1.75 h
Pons [39] = assay: Drug uptake in anesthetized cynomolgus monkey brain pons after 27.5 mins postinjection; format: ADME, organism-based, Macaca fascicularis; details: in vivo
Midbrain [40] = assay: Drug uptake in anesthetized cynomolgus monkey brain midbrain after 235 mins postinjection; format: ADME, organism-based, Macaca fascicularis; details: in vivo
[41] = Ratio of drug uptake in occipital lobe to cerebellum in anesthetized cynomolgus monkey after 205 mins postinjection; format: ADME, organism-based, Macaca fascicularis; details: in vivo
[42] = Ratio of drug uptake in occipital lobe to cerebellum in anesthetized cynomolgus monkey after 115 mins postinjection; format: ADME, organism-based, Macaca fascicularis; details: in vivo
Midbrain [43] = assay: Drug uptake in anesthetized cynomolgus monkey brain midbrain after 9.5 mins postinjection; format: ADME, organism-based, Macaca fascicularis; set-up: unit not given here; details: in vivo
[44] = Ratio of drug uptake in putamen to cerebellum in anesthetized cynomolgus monkey after 155 mins postinjection; format: ADME, organism-based, Macaca fascicularis; details: in vivo
Pons [45] = assay: Drug uptake in anesthetized cynomolgus monkey brain pons after 95 mins postinjection; format: ADME, organism-based, Macaca fascicularis; details: in vivo
Caudate [46] = assay: Drug uptake in anesthetized cynomolgus monkey brain caudate after 115 mins postinjection; format: ADME, organism-based, Macaca fascicularis, Caudate nucleus; details: in vivo
Midbrain [47] = assay: Drug uptake in anesthetized cynomolgus monkey brain midbrain after 18.5 mins postinjection; format: ADME, organism-based, Macaca fascicularis; set-up: unit not given here; details: in vivo
Caudate [48] = assay: Drug uptake in anesthetized cynomolgus monkey brain caudate after 125 mins postinjection; format: ADME, organism-based, Macaca fascicularis, Caudate nucleus; details: in vivo

In the case of `O=C(OCC[18F])C1C2CCC(CC1c1ccc(/C=C\I)cc1)N2` (stereo not drawn), the Drug uptake (Thalamus [1]) is reported as 2.9, the Drug uptake (Caudate [2]) is reported as 2.87 and the Drug uptake (Midbrain [3]) is reported as 2.38. It also gave a Ratio [4] of 2.8, a Ratio [5] of 0.6 and a Drug uptake (Medulla [6]) of 0. For the same compound, the Drug uptake (Midbrain [7]) was 4.01, the Drug uptake [8] was 1.86 and the Drug uptake (Putamen [9]) was 3.1. It also gave a Drug uptake (Midbrain [10]) of 4.62, a Drug uptake (Thalamus [11]) of 3.92 and a Drug uptake (Putamen [12]) of 4.34. The Drug uptake (Medulla [13]) was 3.01, the Drug uptake (Midbrain [14]) was 4.6 and the Drug uptake (Medulla [15]) was 3.35. It also gave a Ratio [16] of 2.6, a Drug uptake [17] of 1.82 and a Drug uptake (Medulla [18]) of 3.32. It also gave a Ratio [19] of 1.6, a Drug uptake (Midbrain [20]) of 3.19 and a Drug uptake (Midbrain [21]) of 3.51. For the same compound, the Drug uptake (Pons [22]) was 0.67, the Ratio [23] was 3.9 and the Drug uptake (Caudate [24]) was 0.56. The Ratio [25] was 1.3, the Drug uptake (Midbrain [26]) was 0 and the Ratio [27] was 1.4. It also gave a Ratio [28] of 2.5, a Drug uptake [29] of 0.24 and a Drug uptake [30] of 1.95. For the same compound, the Drug uptake (Midbrain [31]) was 1.23, the Drug uptake (Thalamus [32]) was 3.98 and the Drug uptake (Thalamus [33]) was 0. It also gave a Drug uptake (Caudate [34]) of 0, a Drug uptake (Putamen [35]) of 3.93 and a Ratio [36] of 2.1. The Ratio [37] was 1.8, the Drug uptake (Caudate [38]) was 3.13 and the Drug uptake (Pons [39]) was 2.58. The Drug uptake (Midbrain [40]) was 4.44, the Ratio [41] was 1.4 and the Ratio [42] was 1.3. It also gave a Drug uptake (Midbrain [43]) of 2.2, a Ratio [44] of 2.8 and a Drug uptake (Pons [45]) of 3.5. The Drug uptake (Caudate [46]) was 3.11, the Drug uptake (Midbrain [47]) was 2.78 and the Drug uptake (Caudate [48]) was 3.09.
